Reference: paper PMC8402032, “Unsymmetric Cisplatin-Based Pt(IV) Conjugates Containing a PARP-1 Inhibitor Pharmacophore Tested on Malignant Pleural Mesothelioma Cell Lines” (Molecules, 2021)

Assays:
[1] = system: MSTO-211H (biphasic phenotype) malignant pleural mesothelioma cells; experiment: Cell viability assay (Trypan blue dye exclusion), MSTO-211H; assay type: cell-based, human; settings: 72 h treatment
Procedure: Complexes 6–9 were tested on a panel of human MPM cell lines together with CDDP and SAA1, added for comparison (Table 1). The half-maximal inhibitory concentration, IC50, was determined on MSTO-211H (biphasic phenotype), REN (epithelioid), BR95 (epithelioid), and MM98 (sarcomatoid) cancer cell lines to identify the most promising Pt(IV) conjugate to be further investigated. To determine the number of viable cells, the use of the dye exclusion assay was preferred to the colorimetric assay because of the heterogeneity in the energy metabolism between the different MPM cell lines. This may justify minor differences with respect to the previously published IC50 for CDDP [40].
Cells were seeded at a density of 10 × 10^4 cells per well in 6-well plates in RPMI medium supplemented with 10% fetal bovine serum (FBS), 100 μg mL^−1 streptomycin, and 10 μg mL^−1 penicillin and incubated overnight at 37 °C in a humidified environment containing 5% CO2 to allow adherence. Cisplatin was dissolved in 0.9% w/v aqueous NaCl brought to pH = 3 with HCl (final stock concentration 1 mM). The Pt(IV) complexes were dissolved in DMSO (final stock concentration 5 mM); the resulting solutions were microfiltered (0.45 μm) and their Pt content was checked by ICP-MS (see Section 3.5.2). These mother solutions were diluted in complete medium to the required concentration range.
Following 72 h of treatment with the diluent of the compound (Ctrl) or different doses of the Pt compounds, cells were trypsinized and stained with Trypan blue. The number of cells considered viable (unstained cells) was counted in a Bürker haemocytometer within 5 min after staining.

[2] = Reduction with ascorbic acid followed by RP-HPLC; assay type: physicochemical; settings: ascorbic acid 10 mM, HEPES 50 mM pH 7.4, 37 °C, cosolvent DMF or MeOH, 24 h
Procedure: To verify the activation by reduction mechanism, complexes 6–9 were challenged with the model bioreductant ascorbic acid (AA, 10 mM in water) in HEPES buffer (HEPES = 4-(2-hydroxyethyl)-1-piperazineethanesulfonic acid, 50 mM, pH = 7.4) at 37 °C. The reaction was monitored by following the RP-HPLC peaks over 24 h. The different solubility and retention times required different experimental conditions for the different compounds (cosolvent DMF or MeOH was necessary to maintain the Pt compounds in solution, >5% v/v). For these reasons, complete reduction for 8 and 9 was observed after 8 h, whereas for 6 and 7, the >85% peak area disappeared after 24 h only. […] Complexes 6–9, having very similar coordination skeletons, can be expected to behave in the same way.
The reduction of complexes with ascorbic acid was followed by monitoring of the reduction of the area of their chromatographic peaks via RP-HPLC over 24 h at 37 °C. The Pt compounds were dissolved in methanol or DMF (up to 20 mM) and diluted with different quantities of 50 mM 4-(2-hydroxyethyl)piperazine-1-ethanesulfonic acid (HEPES) buffer (pH = […]) containing 10 mM ascorbic acid. The mixtures were microfiltered to eliminate the precipitated complex. The chromatographic conditions were similar to those for the determination of lipophilicity (see Section 3.4), with different percentages of methanol depending on the complex.

PARP-1 = molecular target: T1, PARP-1 (Homo sapiens, UniProt P09874); experiment: Cellular thermal shift assay (CETSA) for in-cell PARP-1 target engagement; assay type: binding; settings: MSTO-211H intact cells, 50 µM, 15 min; 52, 56 and 60 °C
T1 construct: endogenous in cells; host or cells: MSTO-211H cells
Description: In order to confirm that PARP-1 is the direct target of 6, the cellular thermal shift assay (CETSA®) was employed. This assay is based on the biophysical principle of ligand-induced thermal stabilization of target proteins. Indeed, ligand-bound proteins are stabilized by their interacting partner and melt at a higher temperature with respect to the native protein. The test involves the drug treatment of the cellular system of choice, the heating of the cell to different temperatures, and the quantification of the presence of target protein in the soluble fraction by Western blotting to validate and quantify target engagement of drugs in cells and tissues.
Multiple aliquots of MSTO-211H intact cells, previously incubated with the diluent, 3-ABA or 6, were heated to different temperatures ranging from 48 °C to 60 °C. After lysis, the soluble fractions were analyzed by SDS-PAGE followed by Western blot. In Figure 6, the stabilities of 6 and 3-ABA, at 52, 56, and 60 °C, are compared.
For the intact cell experiments, MSTO-211H cells were treated with the diluent of the compound (Ctrl) or 6 (50 µM) in complete medium for 15 min at 37 °C, in a humidified environment containing 5% CO2. […] The supernatants were then analyzed by SDS-PAGE followed by Western blot analysis as previously described. […]

T1 sequence (P09874 whole entry): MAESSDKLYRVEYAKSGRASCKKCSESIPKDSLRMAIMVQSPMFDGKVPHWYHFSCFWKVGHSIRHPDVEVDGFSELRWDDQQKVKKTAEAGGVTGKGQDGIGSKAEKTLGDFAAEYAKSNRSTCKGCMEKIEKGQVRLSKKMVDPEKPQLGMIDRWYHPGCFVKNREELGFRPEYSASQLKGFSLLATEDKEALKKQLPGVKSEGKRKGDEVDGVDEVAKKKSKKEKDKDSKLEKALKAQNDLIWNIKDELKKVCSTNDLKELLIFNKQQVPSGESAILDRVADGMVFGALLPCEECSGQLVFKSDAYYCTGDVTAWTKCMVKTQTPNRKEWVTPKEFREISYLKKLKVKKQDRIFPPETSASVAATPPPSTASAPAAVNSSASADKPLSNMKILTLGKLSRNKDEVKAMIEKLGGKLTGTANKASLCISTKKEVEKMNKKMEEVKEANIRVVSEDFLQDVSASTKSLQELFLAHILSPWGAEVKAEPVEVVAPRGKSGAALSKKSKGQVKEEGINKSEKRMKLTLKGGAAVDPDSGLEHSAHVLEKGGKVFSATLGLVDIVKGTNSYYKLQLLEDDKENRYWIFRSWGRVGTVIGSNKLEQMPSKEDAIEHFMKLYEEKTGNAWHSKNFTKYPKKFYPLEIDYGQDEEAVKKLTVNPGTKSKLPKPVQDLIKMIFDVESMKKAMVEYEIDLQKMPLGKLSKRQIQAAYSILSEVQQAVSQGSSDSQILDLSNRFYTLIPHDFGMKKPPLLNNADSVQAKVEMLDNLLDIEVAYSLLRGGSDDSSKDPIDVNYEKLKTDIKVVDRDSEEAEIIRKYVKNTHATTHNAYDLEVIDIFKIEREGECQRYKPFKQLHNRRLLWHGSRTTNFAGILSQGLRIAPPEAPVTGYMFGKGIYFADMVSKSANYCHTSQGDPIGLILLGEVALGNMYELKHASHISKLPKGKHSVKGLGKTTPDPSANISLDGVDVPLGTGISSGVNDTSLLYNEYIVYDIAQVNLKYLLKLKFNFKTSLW

CC(=O)[O][Pt]([NH2])([NH2])([Cl])([Cl])[O]C(=O)CCNC(=O)c1cccc(NC(=O)OCC2c3ccccc3-c3ccccc32)c1 [Compound 6, (OC-6-44)-Acetato[3-(3-(fmoc-amino)-benzamido)-propanoato]-diammine-dichlorido-platinum(IV)]
ratio IC50 (cisplatin)/IC50 (Pt(IV) complex), MSTO-211H [1]: 1.6 | IC50 ([1]; mean ± sd, read-out: IC50 MSTO-211H): 690 ± 30 nM | peak area disappeared after 24 h [2]: > 85% | thermal stability of PARP-1 protein levels (PARP-1): more stable to heating as compared with the control and 3-ABA groups
